In patent publication US20240197691A1, “TACROLIMUS COMPOSITIONS AND METHODS OF USE” (CN2 THERAPEUTICS, INC., priority 2022, published 2024):
Several values for one entry are separate records, joined by “and”; a condition that tells them apart may be missing. Identical values can stand only once.

How the values were obtained:
[1] = Forced degradation (thermal, acidic, basic, oxidative, UV); assay type: physicochemical
Experimental: Forced degradation of the drug product by thermal, acidic, basic, oxidative and UV stress conditions was performed. Forced degradation for the thermal, acidic and oxidative conditions were performed at 40° C., as it was anticipated that the drug would be stable under these conditions, based on its structure. UV and basic conditions were performed at ambient conditions. The drug product is most susceptible to basic stress conditions, and to a lesser extent is susceptible to UV and oxidative conditions. A summary of all the degradation peaks as a function of the stress condition can be found in Table 28.

[2] = Gamma irradiation of Tacrolimus; assay type: physicochemical
Description: In certain embodiments, the composition can be irradiated before administration to a subject. For example, at least one component of the composition, such as, for example, tacrolimus, can undergo gamma irradiation before the final composition is created or the final composition can undergo gamma irradiation. In certain embodiments, the composition can be irradiated at a dose ranging from about 1 kilo-Gray (kGy) to about 100 kGy, preferably about 10 kGy to about 75 kGy, most preferably about 15 kGy to about 40 kGy.
The composition can be irradiated at a dose ranging from about 1 kilo-Gray (kGy) to about 100 kGy, preferably about 10 kGy to about 75 kGy, most preferably about 15 kGy to about 40 kGy (Table 36).

[3] = pH 5
[4] = reported; cited from earlier work
[5] = Surface tension (pendant drop); assay type: physicochemical; conditions: Theta Lite Optical Tensiometer, 5 μL
Experimental: The Theta Lite Optical Tensiometer, Pendant drop Method, 5 μL sample size was used to measure the surface tension of the tacrolimus compositions.

[6] = Contact angle on parafilm; assay type: physicochemical; conditions: 20 μL on parafilm, ambient temperature
Experimental: The Theta Lite Optical Tensiometer, Dynamic Contact Angle Measurement, 20 μL sample size was used to measure the contact angle of the tacrolimus compositions of parafilm of 73.50 and 73.20. The tacrolimus composition has better wettability on the hydrophobic surface of parafilm when compared to water (97.90 and 99.90).

Which “Degradant at RRT 0.52, Area %” value ([1]; Acid, 72h (40° C.)) does the source give for `C=CC[C@@H]1/C=C(\C)C[C@H](C)C[C@H](OC)[C@H]2O[C@@](O)(C(=O)C(=O)N3CCCC[C@H]3C(=O)O[C@H](/C(C)=C/[C@@H]3CC[C@@H](O)[C@H](OC)C3)[C@H](C)[C@@H](O)CC1=O)[C@H](C)C[C@@H]2OC.O` [Tacrolimus] here?
Its value is 0.52 (0.47%).

And the “Degradant at RRT 1.32, Area %” value ([1]; Acid, 72h (40° C.))?
Its value is 1.32 (0.09%).

What about the “Degradant at RRT 1.36, Area %” value ([1]; Acid, 72h (40° C.)) of the same compound?
Its value is 1.36 (0.07%).

What about the “Degradant at RRT 0.39, Area %” value ([1]; Base, 5 min (ambient)) of the same compound?
Its value is 0.39 (1.52%).

What about the “Degradant at RRT 0.52, Area %” value ([1]; Base, 5 min (ambient)) of the same compound?
The value was 0.52 (27.62%).

And the “Degradant at RRT 0.79, Area %” value ([1]; Base, 5 min (ambient))?
Its value is 0.79 (0.97%).

What about the “Degradant at RRT 1.28, Area %” value ([1]; Base, 5 min (ambient)) of the same compound?
The value was 1.28 (0.20%).

What about the “Degradant at RRT 1.32, Area %” value ([1]; Base, 5 min (ambient)) of the same compound?
Its value is 1.32 (3.02%).

What about the “Degradant at RRT 1.35, Area %” value ([1]; Base, 5 min (ambient)) of the same compound?
Its value is 1.35 (2.37%).

What about the “Degradant at RRT 0.43, Area %” value ([1]; Peroxide, 48 h (40° C.)) of the same compound?
The value was 0.43 (2.03%).

What about the “Degradant at RRT 1.18, Area %” value ([1]; Peroxide, 48 h (40° C.)) of the same compound?
The value was 1.18 (0.17%).

And the “Degradant at RRT 1.20, Area %” value ([1]; Peroxide, 48 h (40° C.))?
Its value is 1.20 (0.05%).

And the “Degradant at RRT 1.25, Area %” value ([1]; Peroxide, 48 h (40° C.))?
The value was 1.25 (0.35%).

What about the “Degradant at RRT 1.27, Area %” value ([1]; Peroxide, 48 h (40° C.)) of the same compound?
The value was 1.27 (0.16%).

And the “Degradant at RRT 1.29, Area %” value ([1]; Peroxide, 48 h (40° C.))?
Its value is 1.29 (0.10%).

And the “Degradant at RRT 1.33, Area %” value ([1]; Peroxide, 48 h (40° C.))?
The value was 1.33 (0.06%).

And the “Degradant at RRT 1.44, Area %” value ([1]; Peroxide, 48 h (40° C.))?
Its value is 1.44 (0.08%).

What about the “Degradant at RRT 0.43, Area %” value ([1]; Thermal, 72 h (40° C.)) of the same compound?
The value was 0.43 (0.96%).

And the “Degradant at RRT 0.38, Area %” value ([1]; UV, 72 h (ambient))?
The value was 0.38 (0.36%).

And the “Degradant at RRT 0.45, Area %” value ([1]; UV, 72 h (ambient))?
The value was 0.45 (0.88%).

And the “Degradant at RRT 0.53, Area %” value ([1]; UV, 72 h (ambient))?
The value was 0.53 (3.07%).

And the “Degradant at RRT 0.58, Area %” value ([1]; UV, 72 h (ambient))?
Its value is 0.58 (0.40%).

What about the “Degradant at RRT 1.03, Area %” value ([1]; UV, 72 h (ambient)) of the same compound?
Its value is 1.03 (1.30%).

And the “Degradant at RRT 1.10, Area %” value ([1]; UV, 72 h (ambient))?
The value was 1.10 (0.94%).

And the “Degradant at RRT 1.13, Area %” value ([1]; UV, 72 h (ambient))?
The value was 1.13 (2.90%).

And the “Degradant at RRT 1.17, Area %” value ([1]; UV, 72 h (ambient))?
The value was 1.17 (5.21%).

What about the “Degradant at RRT 1.21, Area %” value ([1]; UV, 72 h (ambient)) of the same compound?
The value was 1.21 (13.81%).

What about the “% impurities” value ([2]; 15 kGy solid) of the same compound?
The value was 0.82%.

What about the “Total [Tac] in sample measured” value ([2]; 15 kGy solid) of the same compound?
Its value is 0.96 mg/g.

And the “% impurities” value ([2]; 25 kGy solid)?
The value was 0.88%.

And the “Total [Tac] in sample measured” value ([2]; 25 kGy solid)?
The value was 0.92 mg/g.

What about the “% impurities” value ([2]; 40 kGy solid) of the same compound?
The value was 0.91%.

And the “Total [Tac] in sample measured” value ([2]; 40 kGy solid)?
The value was 0.91 mg/g.

And the “% impurities” value ([2]; Control solid)?
The value was 0.56%.

And the “Total [Tac] in sample measured” value ([2]; Control solid)?
Its value is 0.99 mg/g.

What about the “Solubility of Tacrolimus in the supernatant” value [3] of the same compound?
The value was at most 3.2 µg/g.

What about the “log P” value [4] of the same compound?
The value was 3.3.

With Water as the compound, how does the “Surface Tension” value [5] read?
The value was 72 mN/m.

And the Contact angle [6]?
Its Contact angle is 97.9 ° and 99.9 °.
